PMC5055185, “Dual pharmacological inhibition of glutathione and thioredoxin systems synergizes to kill colorectal carcinoma stem cells” (Cancer Medicine, 2016)
Where “and” joins values, the source holds several entries; their conditions need not be identical. Equal entries are not always repeated.

Legend:
Format in all cases: cell-based, human
[1] = tested on: TIG‐3 embryonic fibroblasts (fetal lung); assay: cell survival (trypan blue exclusion, 5 days), TIG-3; conditions: for IC50: TIG3, cellular survival, 5 days; for Ratio of survived cells (Drugs treated/Untreated), Average / Ratio of survived cells (Drugs treated/Untreated), single passage points #: TIG-3
Experimental: (§1) Modified procedures of CTOS culture 16 were described elsewhere 10. […] The culture medium was serum‐free advanced DMEM/F‐12 (GIBCO, Waltham, MA) supplemented with FGF‐2 (10 ng/mL, ReproCell, Yokohama, Japan), penicillin ([…], Wako, Osaka, Japan), streptomycin (0.1 mg/mL,Wako), gentamicin (50 μg/mL, Wako), and fungizone (0.25 μg/mL, GIBCO). DLD‐1 and HCT116 CRC cell lines were purchased from JCRB Cell Bank (Osaka, Japan) and RIKEN BioResource Center (Ibaraki, Japan), respectively. In order to estimate pharmacological side effects against normal tissues, human diploid fibroblasts were purchased (JCRB Cell Bank) as model cells. The origins of the fibroblasts were as follows: OUMS‐36 (embryo), TIG‐3 (fetal lung), TIG‐111 (dermal fibroblasts [DFs] from individual), TIG‐119 (DFs from individual), and TIG‐102 (DFs from individual). Adult DFs were purchased from Kurabo (Osaka, Japan). CRC cell lines and fibroblasts were maintained under supplier‐recommended culture conditions. Since the culture conditions are different between fibroblasts and CTOSs, we need to be cautious about the interpretation of data (i.e., lateral comparison between them). […] Colorectal CTOSs display augmented survival through maintaining epithelial structure with E‐cadherin 16. On the other hand, the establishment of conventional cell lines (adherent culture) are much less efficient because constant cell division and autonomous survival are required for the procedure. When we choose CTOSs instead of cancer cell lines, we lose the equivalent condition (adherent culture) as a trade‐off.
(§2) Each drug's half‐maximal inhibitory concentration (IC50) was calculated based on live cell number ratios (drug treated/untreated × 100%) obtained from serial dilution of drug concentration. The length of drug exposure was 5 days. Each number of live cells was counted automatically by trypan blue exclusion (LUNA automated cell counter, Logos Biosystems, Anyang, South Korea). Cancer spheroids were dispersed with serial treatments (20 min each) of TrypLE™ and Accumax™. Thus, IC50 was determined based on cellular survival, but not on proliferation. We chose the survival index instead of the speed of growth because CTOSs in vitro show very slow proliferation (quiescence), which is one of the hallmarks of CSCs 2. The IC50 values of fibroblasts were accordingly determined based on cellular survival index during quiescence (by contact inhibition). […] To quantify the synergism of two distinct drugs, Combination Index (CI) was calculated 21. A CI value of about 1 (0.90–1.10) was defined as nearly additive and CI values more than (>1.10) and less than (<0.90) were defined as antagonism and synergism, respectively. IC50 and CI were determined using CompuSyn software (ComboSyn, Paramus, NK).

[2] = tested on: TIG‐111 dermal fibroblasts; assay: cell survival (trypan blue exclusion, 5 days), TIG-111; conditions: for IC50: TIG111, cellular survival, 5 days; for Ratio of survived cells (Drugs treated/Untreated), Average / Ratio of survived cells (Drugs treated/Untreated), single passage points #: TIG-111
Experimental: as §1, §2

[3] = tested on: CTOS86 colorectal cancer tissue‐originated spheroids; assay: cell survival (trypan blue exclusion, 5 days), CTOS86; conditions: for IC50: CTOS86, cellular survival, 5 days; for Ratio of survived cells (Drugs treated/Untreated), Average / Ratio of survived cells (Drugs treated/Untreated), single passage points #: CTOS#86
Text: All experimental procedures were approved by the animal facility at Dokkyo Medical University (ID: 951) and were described elsewhere 10. The existence of CSCs has been experimentally proven through serial xenotransplantation and tumorigenesis 2, 14. […] These subcutaneous tumors were again subjected to enzymatic dissociation and some of the tumor cells were subcutaneously transplanted into other mice. […] Seven cases (CTOS:40, 42, 68, 71, 76, 86, 88) were used for in vitro experiments.
as §1
Each drug's half‐maximal inhibitory concentration (IC50) was calculated based on live cell number ratios (drug treated/untreated × 100%) obtained from serial dilution of drug concentration. The length of drug exposure was 5 days. Each number of live cells was counted automatically by trypan blue exclusion (LUNA automated cell counter, Logos Biosystems, Anyang, South Korea). Cancer spheroids were dispersed with serial treatments (20 min each) of TrypLE™ and Accumax™. Thus, IC50 was determined based on cellular survival, but not on proliferation.

[4] = tested on: HCT116 CRC cell line; assay: intracellular ROS, CellROX Deep Red flow cytometry, HCT116; conditions: treated 1 h (menadione 100 μmol/L, 30 min)
Experimental: In order to estimate the effect of each inhibitor described above, intracellular reactive oxygen species (ROS) were measured using CellROX™ Deep Red reagent (Molecular Probes). Briefly, cells were seeded on 6‐well plates at 1 × 10^6 cells per well. After cells reached 90% confluence, cells were treated with designated reagents for 1 h. CellROX™ Deep Red reagent was added at a final concentration of 5 μmol/L to the culture medium and then incubated for 30 min at 37°C. Subsequently, the medium was removed and the cells were washed with PBS and detached using 0.25% trypsin‐EDTA. The resulting fluorescence was measured using a FACS Calibur flow cytometer (Becton Dickinson, Franklin Lakes, NJ). Menadione (100 μmol/L) was added 30 min before CellROX™ Deep Red reagent treatment as a reference ROS inducer. […] CD44v9 positivity of CTOS cells was analyzed as follows: Cancer spheroids were dispersed with serial treatments of TrypLE™ (20 min, GIBCO) and Accumax™ (10 min, Innovative Cell Technologies, San Diego, CA). Cell surface CD44v9 was stained with CD44v9 antibody (Cosmobio) as well as PE‐conjugated anti‐rat IgG2a (Becton Dickinson). The fluorescence was measured using a FACS Calibur flow cytometer (Becton Dickinson). Since CTOSs contained abundant auto‐fluorescent cells, we defined FL2^+FL1^− cells as authentic PE‐positive (Fig. S4). Thus, CD44v9‐positive rate was defined as FL2^+FL1^−/total live cells and CD44v9‐positive fraction was further gated and split between CD44v9^low and CD44v9^high (Fig. S4), to calculate the mean fluorescent intensity of CD44v9^high fraction.
One hour after each drug treatment, cells were stained with CellROX DeepRed and intracellular ROS were quantified with FACS. Upper: histogram of fluorescent signal is represented. Lower. representative mean fluorescent intensity scores are shown. Note that without drug treatment (Control), intracellular ROS is higher in OUMS36 and TIG3 (embryonic fibroblasts) but lower in DLD-1 and HCT116 (CRC cell lines). ROS in DLD-1 was increased by auranofin. ROS in HCT116 was increased by all the inhibitors tested. Menadione was used as a reference chemical to increase ROS.

[5] = tested on: phosphorylated NRF2 in embryonic fibroblasts (OUMS and TIG3); assay: NRF2 phosphorylation by western blotting, embryonic fibroblasts; conditions: 24 hours, Auranofin 2µM, Piperlongumine 5µM

CC[PH](CC)(CC)[Au][S][C@@H]1O[C@H](COC(C)=O)[C@@H](OC(C)=O)[C@H](OC(C)=O)[C@H]1OC(C)=O [Aura, Auranofin]
IC50 [1]: 1.96 µM | Ratio of survived cells (Drugs treated/Untreated), Average ([1]; Aura 1 microM): 83.1429% | Ratio of survived cells (Drugs treated/Untreated), Average ([1]; Aura 2 microM): 61.4286% | Ratio of survived cells (Drugs treated/Untreated), Average ([1]; Aura 4 microM): 9.571% | IC50 [2]: 1.75 µM | Ratio of survived cells (Drugs treated/Untreated), Average ([2]; Aura 1 microM): 94.25% | Ratio of survived cells (Drugs treated/Untreated), Average ([2]; Aura 2 microM): 41.75% | Ratio of survived cells (Drugs treated/Untreated), Average ([2]; Aura 4 microM): 0% | Ratio of survived cells (Drugs treated/Untreated), single passage points # ([2]; Aura 4 microM): 0% | IC50 [3]: 3.02 µM | Ratio of survived cells (Drugs treated/Untreated), Average ([3]; Aura 1 microM): 83.5% | Ratio of survived cells (Drugs treated/Untreated), single passage points # ([3]; Aura 1 microM): 75% and 92% | Ratio of survived cells (Drugs treated/Untreated), Average ([3]; Aura 2 microM): 64.5% | Ratio of survived cells (Drugs treated/Untreated), single passage points # ([3]; Aura 2 microM): 67% and 62% | intracellular ROS response [4]: increase of ROS | NRF2 phosphorylation [5]: less efficiently phosphorylated

COc1cc(/C=C/C(=O)N2CCC=CC2=O)cc(OC)c1OC [Pipe, Piperlongumine]
IC50 [1]: 10.6 µM | Ratio of survived cells (Drugs treated/Untreated), Average ([1]; Pipe 2.5 microM): 111.833% | Ratio of survived cells (Drugs treated/Untreated), single passage points # ([1]; Pipe 2.5 microM): 107% and 154% and 95% and 81% and 127% | Ratio of survived cells (Drugs treated/Untreated), Average ([1]; Pipe 5 microM): 79.5% | Ratio of survived cells (Drugs treated/Untreated), single passage points # ([1]; Pipe 5 microM): 82% and 60% and 112% and 58% and 92% and 73% | Ratio of survived cells (Drugs treated/Untreated), Average ([1]; Pipe 10 microM): 64% | IC50 [2]: 8.04 µM | Ratio of survived cells (Drugs treated/Untreated), Average ([2]; Pipe 2.5 microM): 110% | Ratio of survived cells (Drugs treated/Untreated), single passage points # ([2]; Pipe 2.5 microM): 85% and 103% and 123% and 129% | Ratio of survived cells (Drugs treated/Untreated), Average ([2]; Pipe 5 microM): 95% | Ratio of survived cells (Drugs treated/Untreated), single passage points # ([2]; Pipe 5 microM): 69% and 82% and 125% and 104% | Ratio of survived cells (Drugs treated/Untreated), Average ([2]; Pipe 10 microM): 19.75% | IC50 [3]: 7.12 µM | Ratio of survived cells (Drugs treated/Untreated), Average ([3]; Pipe 2.5 microM): 79% | Ratio of survived cells (Drugs treated/Untreated), single passage points # ([3]; Pipe 2.5 microM): 79% | Ratio of survived cells (Drugs treated/Untreated), Average ([3]; Pipe 5 microM): 60% | Ratio of survived cells (Drugs treated/Untreated), single passage points # ([3]; Pipe 5 microM): 69% and 51% | Ratio of survived cells (Drugs treated/Untreated), Average ([3]; Pipe 10 microM): 39.5% | Ratio of survived cells (Drugs treated/Untreated), single passage points # ([3]; Pipe 10 microM): 39% and 40% | intracellular ROS response [4]: increase of ROS | NRF2 phosphorylation [5]: not | NRF2 phosphorylation ([5]; listed as Piperlongmine): almost negligible
